PMC9230136 (Pharmaceutics, 2022)
Read-outs that look alike come from different tables or passages of the source.

Assays:
HeLa cells [1] = assay: Mitochondrial membrane potential (JC-1); format: cell-based, human; conditions: Figure 8A representative plot; concentration not given
Experimental: (§1) The mitochondrial potential was evaluated in HeLa cells by flow cytometry using the cell membrane permeable cationic dye 5,5′,6,6′-tetrachloro-1,1′,3,3′-tetraethyl-imidacarbocyanine iodide (JC-1) (Molecular Probes) as described previously. The production of ROS was measured in HeLa cells by flow cytometry using 2′,7′-dichlorodihydrofluorescein diacetate (H2DCFDA) (Molecular Probes) as described previously.

HeLa cells [2] = assay: Cell cycle analysis (PI, flow cytometry); format: cell-based, human; conditions: 50 nM, 24 h
Experimental: HeLa cells were seeded at 100,000 cells per well on 6-well tissue culture plates. After 24 h, cells were treated with different test compound concentrations or DMSO for another 24 h. Cells were then fixed and stained with propidium iodide (PI). The fluorescence intensity of 10,000 single-cell events was measured with a Beckman Coulter Cytomics FC500 instrument (Beckman Coulter Italia, Milano, Italy) and the data were analyzed with MultiCycle for Windows software from Phoenix Flow Systems (San Diego, CA, USA).

HeLa cells [3] = assay: Western blot of cellular protein expression; format: cell-based, human; conditions: 24 h
Experimental: Following growth for various times in the presence of 8q, HeLa cells were harvested by centrifugation and washed twice in 0 °C PBS. Cells were lysed with 0.1% (v/v) Triton X-100 containing RNase A at 0 °C, and supernatants were obtained by centrifuging the lysed cells at 15,000× g for 10 min at 4 °C. The protein content of the solutions was measured, and 10 μg of protein from each sample was subjected to sodium dodecyl sulfate polyacrylamide gel electrophoresis. Proteins were transferred by electroblotting to a poly(vinylidene difluoride) Hybond-P membrane from GE Healthcare. Membranes were treated with 5% bovine serum albumin in PBS containing 0.1% Tween 20 overnight at 4 °C. The membranes were then exposed for 2 h at room temperature to primary antibodies directed against cyclin B cdc25c, cdc2 (Y15), BCL-2, cleaved poly (ADP-ribose) polymerase (PARP), MCL-1, XIAP and vinculin (all from Cell Signaling), and subsequently for 1 h to peroxidase-labeled secondary antibodies. The membranes were visualized using ECL select (GE Healthcare), and images were acquired using a Uvitec-Alliance imaging system. Densitometric analysis of Western blots was performed by ImageJ software and the results were normalized to β-actin and represented as fold change with respect to untreated controls.

[4] = system: A549, MDA-MB-231, HeLa, HT-29 and Jurkat cancer cell lines; assay: Antiproliferative activity over the panel of cancer cell lines; format: cell-based, human; conditions: mean over the five cancer cell lines; read-out: mean IC50 (antiproliferative activity)
In short: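 The highest dose is 10 μM, diluted in five-fold steps, and each condition is run in triplicate. HT-29 uses RPMI-1640 medium; MDA-MB-231, A549 and HeLa use DMEM.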

HeLa cells [5] = assay: ROS production (H2DCFDA); format: cell-based, human; conditions: 10, 50 or 100 nM; 24 h
Experimental: as §1

PBL stimulated with PHA = assay: Cytotoxicity in human PBLs stimulated with PHA; format: cell-based; conditions: 72 h, read-out: IC50 PBLPHA
Source text: Human PBLs were obtained from healthy donors by separation on a Lymphoprep^TM (Serumwerk Bernburg AG) gradient and were used for the evaluation of the cytotoxic potential of compounds under study in normal human cells. Buffy coats were obtained from the Blood Transfusion Service, Azienda Ospedaliera of Padova and provided at this institution for research purposes without identifier. The samples were not obtained specifically for this study, and for this reason ethical approval was not required. Informed consent was obtained from blood donors according to Italian law no. 219 (21 October 2005). Data were treated by the Blood Transfusion Service according to Italian law on personal data management “Codice in materia di protezione dati personali” (Testo Unico D.L. Giugno 30, 2003 196).
After extensive washing with saline solution (BioConcept, Hank’s Buffered Saline Solution), quiescent PBLs were resuspended (1.0 × 10^6 cells/mL) in RPMI-1640 medium supplemented with 10% fetal bovine serum. Cytotoxicity evaluations were conducted also in cultures of proliferating PBLs, stimulated with […] PHA (Irvine Scientific). Both resting and proliferating lymphocytes were seeded in 96-well plates and maintained overnight at 37 °C in a humidified 5% CO2 incubator. Serial (5-fold) dilutions of the tested compounds were added, and viability was determined 72 h later by the resazurin viability assay as described above.

Bovine brain tubulin [6] = assay: Inhibition of tubulin polymerization; format: biochemical
In short: (§2)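 Polymerization: 10 μM tubulin preincubated with compound in 0.8 M monosodium glutamate (pH 6.6) at 30 °C, chilled to 0 °C, GTP added, rewarmed to 30 °C; assembly followed by turbidity. Colchicine binding: 0.5 μM tubulin with 5 μM each [3H]colchicine and test compound, bound label collected on a DEAE-cellulose filter.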

Bovine brain tubulin [7] = assay: Inhibition of [3H]colchicine binding to tubulin; conditions: tubulin 0.5 µM, [3H]colchicine 5 µM, compound 5 µM
In short: as §2

Cc1cc(Nc2ccc(F)cc2)n2nc(NCCCc3ccccc3)nc2n1 [Compound 8q]
Monomers (%) (monomeric JC-1) (HeLa cells [1]): 64.4%
cells arrested in G2/M (HeLa cells [2]): 80%
BCL-2 and MCL-1 expression (HeLa cells [3]; 50 nM): partial reduction in BCL-2 and MCL-1 expression
caspase-3 activation and PARP cleavage (HeLa cells [3]; 50 nM): appearance of the cleaved fragment of the executioner caspase-3 and the consequent cleavage of its substrate PARP
ATR (Ser428) and CHK1 (S345) phosphorylation (HeLa cells [3]): appreciable increase in ATR phosphorylation (Ser428) and of its downstream target CHK1 (S345)
cdc2 phosphorylation (Tyr15) (HeLa cells [3]): significant reduction in cdc2 phosphorylation (Tyr15)
IC50 [4]: 83 nM
ROS production (HeLa cells [5]): significantly increased ROS production in a dose-dependent manner
IC50 (PBL stimulated with PHA): > 10000 nM
fold more potent than CA-4, tubulin polymerization (Bovine brain tubulin [6]): about 2 fold
IC50 (Bovine brain tubulin [6]; read-out: IC50 tubulin polymerization): 520 nM
IC50 (Bovine brain tubulin [6]; tubulin at 10 μM, read-out: Tubulin Assembly IC50 ± SD): 390 ± 20 nM
Colchicine Binding % Inhibition ± SD (Bovine brain tubulin [7]): 88 ± 0.8%
